Results reported in patent publication US20240139210A1, “TREATMENT OF NF-KB-MEDIATED DISEASE” (ReveraGen BioPharma, Inc., priority 2020, published 2024).

Columns and labels:
participants with DMD [1] = experiment: VBP15-LTE prespecified safety evaluation: height percentile for age and BMI; assay type: in vivo, human
Experimental: Standing height and weight were assessed at each study visit. Height z-score, body mass index (BMI; kg/m 2), and BMI z-score were calculated centrally. AE reporting was done per protocol in the vamorolone trials.
Participants in the corticosteroid-treated CINRG DNHS group were treated for at least 18 months, but the total duration, dose, and regimens varied.
Statistical analyses were done on paired longitudinal outcome data using an analysis of covariance (ANCOVA) approach with change from baseline (VBP15-002) to month 18 (midpoint of VBP15-LTE). Baseline response and age were included as covariates. For the vamorolone-treated participants, age was calculated as (date of informed consent minus birthdate)/365.25. For the DNHS participants, age was calculated as (date of baseline visit used minus birthdate)/365.25. The baseline visit for a DNHS participant was the first visit. […] Timed function tests were analyzed as velocity scores to limit the impact of participants who could not perform the test (velocity=0). Velocity measures are variance-stabilizing transformations, suppressing extreme raw outliers from raw values in seconds; these help with distributional assumptions of the statistical models/tests used. Raw data (seconds) are also reported. Velocity scores for TTSTAND (event/second), TTRW (meters/second), and TTCLIMB (event/second) were inputted as 0 at the first response missing due to inability to perform the test. All other data were observed values only, without imputation. No adjustments for multiplicity on inferential statistics were specified in the iSAP.

[2] = tested on: ambulant boys aged 4 to <7 years with DMD; experiment: VBP15-004 adverse events; set-up: species or system human; settings: in vivo
Description: (§1) The second period of 24 weeks, where all participants receive vamorolone treatment on either of the two dose levels, will continue to capture additional longer-term safety and tolerability data.
The study completion rate at 24 weeks was 94% (or 114 of 121 participants).
Pre-specified AESIs typically for corticosteroids were higher in prednisone-treated subjects than vamorolone-treated subjects after 24 weeks of treatment (Table 10).

participants with DMD [3] = experiment: VBP15-LTE Month 24 PODCI and skeletal maturation by wrist x-ray; assay type: in vivo, human; settings: for Bone Age difference to Chronologic Age, mean (SD): LTE Month 24, wrist x-ray
Description: In addition, 39/41 LTE participants had wrist x-ray at Month 24; the mean bone age to chronologic age difference was −1.1 (p<0.001, CI −1.5, −0.7), indicating possible skeletal maturation delay (Table 7).
PODCI is the Pediatrics Outcomes Data Collection Instrument (musculoskeletal disorders). The PODCI is a disease-specific questionnaire developed by the American Academy of Orthopedic Surgeons to measure general health and problems related to bone and muscle conditions in children. A significant increase in mean PODCI upper extremity and physical function standardized score was observed from LTE baseline to Month 24 (7.95±12.54, CI 1.003, 14.897, p=0.0278, n=15) for the combined 2.0 and 6.0 mg/kg/day initial dose group. At the same time, a non-significant decrease in mean PODCI transfer and basic mobility standardized score was observed (−4.38±22.68, CI −16.471, 7.703, p=0.451, n=16) (Table 7).

[4] = tested on: ambulant boys aged 4 to <7 years with DMD; experiment: VBP15-004 growth (height Z scores); assay type: in vivo, human
Description: as §1

[5] = tested on: ambulant boys aged 4 to <7 years with DMD; experiment: VISION-DMD Phase 2b study VBP15-004, efficacy at 24 weeks; assay type: in vivo, human
Experimental: as §1
The study met its primary endpoint of superiority in the change of time to stand from supine positioning to standing (TTSTAND) velocity with vamorolone 6 mg/kg/day versus placebo (p=0.002) with a treatment difference of 0.06 [95% CI: 0.02-0.10] rises/second from baseline. […] Any number p<0.05 is considered significant.

[6] = tested on: ambulant boys aged 4 to <7 years with DMD; experiment: VBP15-004 bone turnover biomarkers; assay type: in vivo, human; settings: for CTX, difference vs. prednisone / Osteocalcin, difference vs. prednisone / P1NP, difference vs. prednisone: Week 24
[7] = 2.0 or 6.0 mg/kg/day for 18 months (groups C+D)
[8] = vamorolone 18 months versus corticosteroid-naïve DNHS
[9] = LTE baseline to Month 24, combined 2.0 and 6.0 mg/kg/day initial dose group
[10] = assigned to high dose (2.0 and 6.0 mg/kg/day) at start of the study

C[C@@H]1C[C@H]2[C@@H]3CCC4=CC(=O)C=C[C@]4(C)C3=CC[C@]2(C)[C@@]1(O)C(=O)CO [Vamorolone, 17α,21-dihydroxy-16α-methylpregna-1,4,9(11)-triene-3,20-dione]
Mean BMI z-score, 18-month value (SD) (participants with DMD [1]; [7]): 1.46 (0.62) | Mean BMI z-score, change from baseline (SD) (participants with DMD [1]; [7]): 0.411 (0.615) | Mean height percentile for age, 18-month value (SD) (participants with DMD [1]; [7]): 35.24 percentile | Mean BMI z-score, change from baseline (SD) (participants with DMD [1]; 2.0 or 6.0 mg/kg/day for 18 months (groups C+D), listed as vamorolone): 0.41 | LS Mean change in height percentiles for age (participants with DMD [1]; DMD children, N 22, 18 months treatment): +6.9 | BMI change from baseline to 18 months of treatment (participants with DMD [1]; original dose group B (0.75 mg/kg/day, escalated)): 0.5 kg/m 2 | BMI change from baseline to 18 months of treatment (participants with DMD [1]; original dose group C (2.0 mg/kg/day)): 1.11 kg/m 2 | BMI change from baseline to 18 months of treatment (participants with DMD [1]; original dose group D (6.0 mg/kg/day)): 2.55 kg/m 2 | Mean BMI z-score, LS mean difference (SE), ANCOVA (participants with DMD [1]; [8]): 0.899 (0.204) | Mean height percentile for age, LS mean difference (SE), ANCOVA (participants with DMD [1]; [8]): 6.72 (3.48) percentile | clinically relevant psychiatric events, subjects [2]: no vamorolone-treated subjects | moderate/severe behavior problems, subjects ([2]; male, human, 24 weeks): 1.7% | Bone Age difference to Chronologic Age, mean (SD) (participants with DMD [3]; n = 39): −1.1 (1.2), yr | Bone Age difference to Chronologic Age, mean (SD) (participants with DMD [3]; n = 39, listed as vamorolone): −1.1 yr | PODCI transfer and basic mobility, change from baseline (SD) (participants with DMD [3]; [9]): −4.38±22.68 | PODCI upper extremity and physical function, change from baseline (SD) (participants with DMD [3]; [9]): 7.95±12.54 | PODCI transfer and basic mobility, 24 months from LTE baseline, mean (SD) (participants with DMD [3]; [10]): 81.4 (17.5), n = 18 | PODCI transfer and basic mobility, LTE baseline, mean (SD) (participants with DMD [3]; [10]): 86.5 (9.2), n = 19 | PODCI upper extremity and physical function, 24 months from LTE baseline, mean (SD) (participants with DMD [3]; [10]): 82.3 (10.9), n = 18 | PODCI upper extremity and physical function, LTE baseline, mean (SD) (participants with DMD [3]; [10]): 75.3 (15.1), n = 18 | LTE Month 24 Bone Age by wrist x-ray, mean (SD) (participants with DMD [3]; n = 39, chronologic age 8.0 (1.0) yr): 6.8 (1.4), n = 39 yr | change in height Z scores from baseline to Week 24 ([4]; vamorolone 2.0 mg/kg/day): overall stable height change Z scores | change in height Z scores from baseline to Week 24 ([4]; vamorolone 6.0 mg/kg/day): increased growth rate | TTSTAND after treatment (baseline 6.0 seconds) ([5]; vamorolone 6 mg/kg/day): 4.6 s | TTSTAND velocity, treatment difference versus placebo in change from baseline ([5]; vamorolone 6 mg/kg/day): 0.06 rises/second | difference between vamorolone and prednisone across TTSTAND, 6MWT, TTRW endpoints ([5]; vamorolone 6 mg/kg/day vs prednisone 0.75 mg/kg/day): no statistically significant differences | Osteocalcin, mean (SEM) change at Week 24 ([6]; Vamorolone 2.0 mg (N = 17)): 8.3 (3.1) ng/ml | Procollagen 1 N-Terminal Propeptide (P1NP), mean (SEM) change at Week 24 ([6]; Vamorolone 2.0 mg (N = 17)): 48 (27) ng/mL | Type I Collagen C-Telopeptides (CTX), mean (SEM) change at Week 24 ([6]; Vamorolone 2.0 mg (N = 17)): 177 (52) pg/mL | CTX, difference vs. prednisone ([6]; Vamorolone 2.0 mg): 477 (p < 0.001) pg/mL | Osteocalcin, difference vs. prednisone ([6]; Vamorolone 2.0 mg): 23.5 ng/mL | P1NP, difference vs. prednisone ([6]; Vamorolone 2.0 mg): 182 ng/mL | Osteocalcin, mean (SEM) change at Week 24 ([6]; Vamorolone 6.0 mg (N = 23)): 1.7 (2.8) ng/ml | Procollagen 1 N-Terminal Propeptide (P1NP), mean (SEM) change at Week 24 ([6]; Vamorolone 6.0 mg (N = 23)): −11 (22) ng/mL | Type I Collagen C-Telopeptides (CTX), mean (SEM) change at Week 24 ([6]; Vamorolone 6.0 mg (N = 23)): 90 (44) pg/mL | CTX, difference vs. prednisone ([6]; Vamorolone 6.0 mg): 390 (p < 0.001) pg/mL | Osteocalcin, difference vs. prednisone ([6]; Vamorolone 6.0 mg): 16.9 ng/mL | P1NP, difference vs. prednisone ([6]; Vamorolone 6.0 mg): 124 (p < 0.001) ng/mL
